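Test compounds were applied to cells in 96-well plates for 48 hours at 5 doses. GI50 is the concentration that inhibits growth by half.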 Active and inactive are the calls of the source. No stated cut-off is given here; in the data, active = GI50 up to about 1.1 µM and inactive = higher. Non-standard residues stand in square brackets, D forms with d. Residues, ends and D or L forms follow the SMILES beside them. *: point of attachment. NMeF = CN[CH](Cc1ccccc1)C(=O)O; NMeV = CN[CH](C(=O)O)C(C)C; Boc = CC(C)(C)OC(=O)*
Tests used:
Assay in all cases: NCI anticancer screen, dose series, 48 h
A549 = system: A549
CAKI-1 = system: CAKI-1
DMS-114 = system: DMS-114
HCC 2998 = system: HCC 2998
HL-60 = system: HL-60
HT-29 = system: HT-29
IGROV-1 = system: IGROV-1
KM12 = system: KM12
LXFL 529 = system: LXFL 529
MOLT-4 = system: MOLT-4
Malme-3M = system: Malme-3M
OVCAR-3 = system: OVCAR-3
SK-MEL-28 = system: SK-MEL-28
SK-MEL-2 = system: SK-MEL-2
UACC-257 = system: UACC-257
UACC-62 = system: UACC-62
HCT-116 = system: HCT-116
NCI-H460 = system: NCI-H460

Row | Compound | GI50 (A549) | GI50 (CAKI-1) | GI50 (DMS-114) | GI50 (HCC 2998) | GI50 (HL-60) | GI50 (HT-29) | GI50 (IGROV-1) | GI50 (KM12) | GI50 (LXFL 529) | GI50 (MOLT-4) | GI50 (Malme-3M) | GI50 (OVCAR-3) | GI50 (SK-MEL-28) | GI50 (SK-MEL-2) | GI50 (UACC-257) | GI50 (UACC-62) | GI50 (HCT-116) | GI50 (NCI-H460)
1 | Cc1ccccc1-n1c(N)c(-c2nc3ccccc3[nH]2)sc1=S | 31.3 µM (inactive) | 37.8 µM (inactive) | 24.2 µM (inactive) | 18.3 µM (inactive) | 26.1 µM (inactive) | 19.6 µM (inactive) | 24.8 µM (inactive) | 20.7 µM (inactive) | 22.1 µM (inactive) | 27.7 µM (inactive) | 21.5 µM (inactive) | 20 µM (inactive) | 20 µM (inactive) | 23.9 µM (inactive) | 19.3 µM (inactive) | 18.8 µM (inactive) |  | 
2 | COc1ccc(OC)c(/C(C)=N/NC(N)=S)c1 | > 100 µM (inactive) | > 100 µM (inactive) | > 100 µM (inactive) | > 100 µM (inactive) | > 100 µM (inactive) | > 100 µM (inactive) | > 100 µM (inactive) | > 100 µM (inactive) | > 100 µM (inactive) | 74.8 µM (inactive) | > 100 µM (inactive) | > 100 µM (inactive) | > 100 µM (inactive) | > 100 µM (inactive) | > 100 µM (inactive) | > 100 µM (inactive) | > 100 µM (inactive) | > 100 µM (inactive)
3 | CC1=C(C(=O)Nc2ccccc2)C(c2cccc3ccccc23)C(C(=O)Nc2ccccc2)=C(C)N1 | 28 µM (inactive) | 15.6 µM (inactive) | 24.9 µM (inactive) | 20.4 µM (inactive) | 17.1 µM (inactive) | 18.8 µM (inactive) | 25.6 µM (inactive) |  | 15.9 µM (inactive) | 0.767 µM (active) | 18.8 µM (inactive) | 12.8 µM (inactive) | 18 µM (inactive) | 17 µM (inactive) | 18.2 µM (inactive) | 13.8 µM (inactive) | 15.4 µM (inactive) | 
4 | N#CCC(=O)N1CCCOCCC1 | > 100 µM (inactive) | > 100 µM (inactive) | > 100 µM (inactive) | > 100 µM (inactive) | 58.7 µM (inactive) | 34.1 µM (inactive) | > 100 µM (inactive) | > 100 µM (inactive) | > 100 µM (inactive) | 0.46 µM (active) | > 100 µM (inactive) |  | > 100 µM (inactive) | > 100 µM (inactive) | > 100 µM (inactive) | > 100 µM (inactive) | > 100 µM (inactive) | > 100 µM (inactive)
5 | O=C(NCCCCNc1cccccc1=O)OCc1ccccc1 | > 100 µM (inactive) | > 100 µM (inactive) | 56.4 µM (inactive) | > 100 µM (inactive) | > 100 µM (inactive) | > 100 µM (inactive) | > 100 µM (inactive) | > 100 µM (inactive) | > 100 µM (inactive) | > 100 µM (inactive) | > 100 µM (inactive) | > 100 µM (inactive) | > 100 µM (inactive) | > 100 µM (inactive) | > 100 µM (inactive) | > 100 µM (inactive) | > 100 µM (inactive) | > 100 µM (inactive)
6 | C#Cc1c(C)c(/C=C/C(C)=C/C(=O)OC)n(C)c1C | > 100 µM (inactive) | > 100 µM (inactive) | 36.1 µM (inactive) | 59 µM (inactive) | 12.1 µM (inactive) | 58.1 µM (inactive) | > 100 µM (inactive) | > 100 µM (inactive) | 99.8 µM (inactive) | 23.4 µM (inactive) | > 100 µM (inactive) | > 100 µM (inactive) |  |  | > 100 µM (inactive) | 94.6 µM (inactive) | 65.8 µM (inactive) | 
7 | COc1cc(C(=O)C(CO)Oc2ccccc2OC)ccc1O (stereo not given) | > 100 µM (inactive) | > 100 µM (inactive) | > 100 µM (inactive) | > 100 µM (inactive) | > 100 µM (inactive) | > 100 µM (inactive) | > 100 µM (inactive) | > 100 µM (inactive) | > 100 µM (inactive) | > 100 µM (inactive) | > 100 µM (inactive) | > 100 µM (inactive) | > 100 µM (inactive) |  | > 100 µM (inactive) | > 100 µM (inactive) | > 100 µM (inactive) | > 100 µM (inactive)
8 | O=S1(=O)OCCOS(=O)(=O)C1(Br)Cc1ccccc1 | > 100 µM (inactive) |  | > 100 µM (inactive) | > 100 µM (inactive) | > 100 µM (inactive) | > 100 µM (inactive) | > 100 µM (inactive) |  | > 100 µM (inactive) | > 100 µM (inactive) | > 100 µM (inactive) | > 100 µM (inactive) | > 100 µM (inactive) | > 100 µM (inactive) | > 100 µM (inactive) | > 100 µM (inactive) | > 100 µM (inactive) | > 100 µM (inactive)
9 | N=C(N)NS(=O)(=O)c1ccc(Nc2c3ccccc3nc3c(C(=O)Nc4ccc(S(N)(=O)=O)cc4)ccc(Cl)c23)cc1 | > 100 µM (inactive) | > 100 µM (inactive) | > 100 µM (inactive) | > 100 µM (inactive) | 47.8 µM (inactive) | > 100 µM (inactive) | > 100 µM (inactive) | > 100 µM (inactive) | > 100 µM (inactive) | > 100 µM (inactive) | > 100 µM (inactive) | > 100 µM (inactive) | > 100 µM (inactive) |  | > 100 µM (inactive) | > 100 µM (inactive) | > 100 µM (inactive) | > 100 µM (inactive)
10 | N=C1CSC2=NC3=C(CCC/C3=C\c3ccccc3)C(c3ccccc3)N12 (stereo not given) | 4.07 µM (inactive) | 12.5 µM (inactive) | 2.8 µM (inactive) | 3.31 µM (inactive) | 2.34 µM (inactive) | 2.97 µM (inactive) | 5.6 µM (inactive) | 3.7 µM (inactive) | 4.89 µM (inactive) | 2.49 µM (inactive) | 17.2 µM (inactive) | 2.72 µM (inactive) | 7.5 µM (inactive) | 2.27 µM (inactive) | 11.5 µM (inactive) | 9.23 µM (inactive) | 3.54 µM (inactive) | 3.42 µM (inactive)
11 | COc1ccc(-c2cc(=O)c3cc(O)ccc3o2)c(OC)c1OC | 35.6 µM (inactive) | 34.5 µM (inactive) | 27.9 µM (inactive) | 35.6 µM (inactive) | 15.7 µM (inactive) | 44.2 µM (inactive) | 42.8 µM (inactive) | 28.2 µM (inactive) | 30.6 µM (inactive) |  | 66.5 µM (inactive) | 18.4 µM (inactive) | 53.7 µM (inactive) | 28.3 µM (inactive) | 32.2 µM (inactive) | 28.7 µM (inactive) | 26.5 µM (inactive) | 
12 | CC(C)C(NC(=O)OC(C)(C)C)C(=O)N(C)C(Cc1ccccc1)C(=O)N(C)C(C(=O)O)C(C)C (stereo not drawn) (Boc-Val-[NMeF]-[NMeV]-OH; configuration not given here) | > 100 µM (inactive) |  | > 100 µM (inactive) | > 100 µM (inactive) | > 100 µM (inactive) | > 100 µM (inactive) | > 100 µM (inactive) | > 100 µM (inactive) | > 100 µM (inactive) | > 100 µM (inactive) | > 100 µM (inactive) | > 100 µM (inactive) | > 100 µM (inactive) |  | > 100 µM (inactive) | > 100 µM (inactive) | > 100 µM (inactive) | > 100 µM (inactive)
